Assay results: US11420947B2, “(S)-n-hydroxy-2-(2-(4-methoxyphenyl)butanamido)thiazole-5-carboxamide and pharmaceutically acceptable salts thereof” (TRANSLATIONAL DRUG DEVELOPMENT, LLC, priority 2018, dated 2022)

Experiments:
Format in all cases: biochemical
[1] = biological target: T1, HDAC4 (Homo sapiens, UniProt P56524); assay: Inhibition of HDAC enzymes, 12-point concentration-response
T1 construct: made in house
Protocol: (§1) Compounds were tested in a 12-point concentration-response format against 11 HDAC enzymes as outlined in Table 2A. Test compounds were diluted in 100% DMSO using 3-fold dilution steps. The final compound concentration in the assay ranged from 100 μM to 0.565 nM or as requested. Compounds were tested in a single well for each dilution, and the final concentration of DMSO in all assays was kept at 1%. Reference compounds were tested in an identical manner.

[2] = biological target: T2, HDAC8 (Homo sapiens, UniProt Q9BY41); assay: as above
T2 construct: purchased BPS 50008
T2 sequence (Q9BY41 whole entry): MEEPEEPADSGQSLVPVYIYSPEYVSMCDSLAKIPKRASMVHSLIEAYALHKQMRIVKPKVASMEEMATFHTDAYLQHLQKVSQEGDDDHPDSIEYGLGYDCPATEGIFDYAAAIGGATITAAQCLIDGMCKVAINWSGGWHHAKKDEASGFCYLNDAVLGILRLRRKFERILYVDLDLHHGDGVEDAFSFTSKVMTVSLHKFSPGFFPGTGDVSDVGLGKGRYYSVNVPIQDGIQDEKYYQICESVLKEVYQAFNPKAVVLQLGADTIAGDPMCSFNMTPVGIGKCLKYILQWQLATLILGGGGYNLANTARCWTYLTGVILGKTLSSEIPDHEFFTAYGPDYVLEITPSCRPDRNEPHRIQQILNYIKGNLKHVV
Protocol: as §1

[3] = biological target: T3, HDAC10 (Homo sapiens, UniProt Q969S8); assay: as above; settings: for IC50: HDAC10
T3 construct: made in house
T3 sequence (Q969S8 1-669): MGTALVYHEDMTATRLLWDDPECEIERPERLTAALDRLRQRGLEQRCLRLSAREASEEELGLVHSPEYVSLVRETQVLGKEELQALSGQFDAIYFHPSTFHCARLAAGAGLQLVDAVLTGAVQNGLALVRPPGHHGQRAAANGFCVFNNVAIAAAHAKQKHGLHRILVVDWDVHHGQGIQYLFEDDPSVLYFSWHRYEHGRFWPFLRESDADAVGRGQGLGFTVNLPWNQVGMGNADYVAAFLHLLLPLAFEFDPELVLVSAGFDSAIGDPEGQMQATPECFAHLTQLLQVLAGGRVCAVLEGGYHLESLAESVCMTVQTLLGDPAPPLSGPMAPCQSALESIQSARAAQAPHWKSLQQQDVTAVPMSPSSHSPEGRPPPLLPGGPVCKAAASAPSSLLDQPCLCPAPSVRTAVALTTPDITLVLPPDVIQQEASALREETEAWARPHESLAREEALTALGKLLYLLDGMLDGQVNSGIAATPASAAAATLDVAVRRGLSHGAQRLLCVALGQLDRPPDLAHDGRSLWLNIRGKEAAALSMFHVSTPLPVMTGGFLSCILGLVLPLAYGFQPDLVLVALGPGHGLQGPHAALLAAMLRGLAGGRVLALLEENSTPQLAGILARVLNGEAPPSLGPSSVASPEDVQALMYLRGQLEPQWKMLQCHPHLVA
Protocol: as §1

[4] = biological target: T4, HDAC7 (Homo sapiens, UniProt Q8WUI4); assay: as above
T4 construct: made in house
T4 sequence (Q8WUI4 whole entry): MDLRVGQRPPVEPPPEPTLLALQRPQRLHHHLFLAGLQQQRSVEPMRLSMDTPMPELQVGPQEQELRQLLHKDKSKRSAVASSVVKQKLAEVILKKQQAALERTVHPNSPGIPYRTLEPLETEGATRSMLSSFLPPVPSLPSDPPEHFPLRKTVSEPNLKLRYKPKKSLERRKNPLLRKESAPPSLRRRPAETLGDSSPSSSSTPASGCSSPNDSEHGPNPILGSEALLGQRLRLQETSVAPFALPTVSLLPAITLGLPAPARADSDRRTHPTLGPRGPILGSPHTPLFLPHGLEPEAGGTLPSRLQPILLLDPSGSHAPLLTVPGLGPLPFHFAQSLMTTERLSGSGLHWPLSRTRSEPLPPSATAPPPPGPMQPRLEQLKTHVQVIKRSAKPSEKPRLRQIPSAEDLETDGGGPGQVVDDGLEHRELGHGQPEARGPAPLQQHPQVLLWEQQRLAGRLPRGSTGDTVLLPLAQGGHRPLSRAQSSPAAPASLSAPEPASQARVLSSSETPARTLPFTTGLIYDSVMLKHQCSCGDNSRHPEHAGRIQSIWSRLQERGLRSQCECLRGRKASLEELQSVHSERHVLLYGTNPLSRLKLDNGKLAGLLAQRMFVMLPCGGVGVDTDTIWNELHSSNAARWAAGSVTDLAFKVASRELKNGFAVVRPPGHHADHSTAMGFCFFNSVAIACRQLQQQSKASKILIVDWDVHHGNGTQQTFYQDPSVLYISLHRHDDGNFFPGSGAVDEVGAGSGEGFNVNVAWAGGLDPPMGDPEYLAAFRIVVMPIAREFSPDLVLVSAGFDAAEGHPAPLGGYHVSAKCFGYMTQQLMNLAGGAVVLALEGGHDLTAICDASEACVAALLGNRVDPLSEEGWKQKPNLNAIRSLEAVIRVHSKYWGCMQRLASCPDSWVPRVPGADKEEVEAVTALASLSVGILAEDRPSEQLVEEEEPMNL
Protocol: as §1

[5] = biological target: T5, HDAC11 (Homo sapiens, UniProt Q96DB2); assay: as above
T5 construct: made in house
T5 sequence (Q96DB2 whole entry, species assumed): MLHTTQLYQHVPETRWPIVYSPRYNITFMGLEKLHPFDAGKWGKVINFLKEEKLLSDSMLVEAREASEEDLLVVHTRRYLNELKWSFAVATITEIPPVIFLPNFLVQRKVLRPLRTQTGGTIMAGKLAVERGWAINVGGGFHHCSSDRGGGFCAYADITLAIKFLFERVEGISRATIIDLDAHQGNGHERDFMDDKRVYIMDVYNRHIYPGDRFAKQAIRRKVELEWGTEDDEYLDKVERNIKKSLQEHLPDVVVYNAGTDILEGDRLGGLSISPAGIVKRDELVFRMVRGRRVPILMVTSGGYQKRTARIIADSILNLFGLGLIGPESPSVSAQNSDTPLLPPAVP
Protocol: as §1

[6] = biological target: T6, HDAC5 (Homo sapiens, UniProt Q9UQL6); assay: as above
T6 construct: purchased BPS 50045
T6 sequence (Q9UQL6 whole entry): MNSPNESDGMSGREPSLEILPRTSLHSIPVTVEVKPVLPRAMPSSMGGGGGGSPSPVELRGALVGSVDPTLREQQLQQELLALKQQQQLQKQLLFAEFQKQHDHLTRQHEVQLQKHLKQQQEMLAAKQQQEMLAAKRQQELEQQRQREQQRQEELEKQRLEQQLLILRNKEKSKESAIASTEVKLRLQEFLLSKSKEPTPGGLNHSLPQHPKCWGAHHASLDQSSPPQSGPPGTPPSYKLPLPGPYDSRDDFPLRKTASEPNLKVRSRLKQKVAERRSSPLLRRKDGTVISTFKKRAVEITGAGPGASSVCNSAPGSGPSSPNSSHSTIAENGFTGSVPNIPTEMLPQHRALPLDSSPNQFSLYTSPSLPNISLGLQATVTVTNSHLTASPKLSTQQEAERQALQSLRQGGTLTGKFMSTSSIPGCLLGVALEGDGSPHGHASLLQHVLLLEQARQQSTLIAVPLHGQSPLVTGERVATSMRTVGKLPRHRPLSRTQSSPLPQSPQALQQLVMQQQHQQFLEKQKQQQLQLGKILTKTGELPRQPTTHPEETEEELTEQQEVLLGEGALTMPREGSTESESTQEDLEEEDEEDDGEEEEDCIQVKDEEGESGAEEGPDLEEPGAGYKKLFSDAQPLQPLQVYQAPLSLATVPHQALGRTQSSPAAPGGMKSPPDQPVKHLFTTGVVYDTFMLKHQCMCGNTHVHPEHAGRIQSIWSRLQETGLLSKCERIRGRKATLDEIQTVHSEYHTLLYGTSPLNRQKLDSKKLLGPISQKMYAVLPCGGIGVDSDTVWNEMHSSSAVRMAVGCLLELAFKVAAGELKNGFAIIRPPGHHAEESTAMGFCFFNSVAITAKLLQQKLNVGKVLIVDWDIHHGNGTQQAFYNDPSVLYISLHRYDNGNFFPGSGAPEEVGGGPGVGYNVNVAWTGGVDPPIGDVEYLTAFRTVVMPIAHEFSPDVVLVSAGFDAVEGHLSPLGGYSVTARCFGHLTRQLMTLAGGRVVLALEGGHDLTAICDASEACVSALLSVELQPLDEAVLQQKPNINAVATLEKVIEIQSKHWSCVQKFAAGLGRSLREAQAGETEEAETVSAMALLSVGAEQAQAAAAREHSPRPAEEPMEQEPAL
Protocol: as §1

[7] = biological target: T7, HDAC1 (Homo sapiens, UniProt Q13547); assay: as above
T7 construct: purchased BPS 50051
T7 sequence (Q13547 whole entry): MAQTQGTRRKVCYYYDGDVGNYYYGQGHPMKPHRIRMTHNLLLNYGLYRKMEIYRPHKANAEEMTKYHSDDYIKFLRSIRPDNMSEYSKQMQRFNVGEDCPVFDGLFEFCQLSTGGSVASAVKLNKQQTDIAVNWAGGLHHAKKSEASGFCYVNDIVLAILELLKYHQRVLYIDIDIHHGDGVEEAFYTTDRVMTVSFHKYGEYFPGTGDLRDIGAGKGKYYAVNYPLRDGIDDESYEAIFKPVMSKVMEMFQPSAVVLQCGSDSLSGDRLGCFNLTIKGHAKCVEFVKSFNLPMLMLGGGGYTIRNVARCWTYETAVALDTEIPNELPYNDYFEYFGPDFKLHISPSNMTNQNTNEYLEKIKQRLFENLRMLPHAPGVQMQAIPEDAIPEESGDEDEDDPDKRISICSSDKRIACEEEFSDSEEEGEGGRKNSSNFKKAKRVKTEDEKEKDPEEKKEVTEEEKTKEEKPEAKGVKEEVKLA
Protocol: as §1

[8] = biological target: T8, HDAC2 (Homo sapiens, UniProt Q92769); assay: as above
T8 construct: purchased BPS 50002
T8 sequence (Q92769 whole entry): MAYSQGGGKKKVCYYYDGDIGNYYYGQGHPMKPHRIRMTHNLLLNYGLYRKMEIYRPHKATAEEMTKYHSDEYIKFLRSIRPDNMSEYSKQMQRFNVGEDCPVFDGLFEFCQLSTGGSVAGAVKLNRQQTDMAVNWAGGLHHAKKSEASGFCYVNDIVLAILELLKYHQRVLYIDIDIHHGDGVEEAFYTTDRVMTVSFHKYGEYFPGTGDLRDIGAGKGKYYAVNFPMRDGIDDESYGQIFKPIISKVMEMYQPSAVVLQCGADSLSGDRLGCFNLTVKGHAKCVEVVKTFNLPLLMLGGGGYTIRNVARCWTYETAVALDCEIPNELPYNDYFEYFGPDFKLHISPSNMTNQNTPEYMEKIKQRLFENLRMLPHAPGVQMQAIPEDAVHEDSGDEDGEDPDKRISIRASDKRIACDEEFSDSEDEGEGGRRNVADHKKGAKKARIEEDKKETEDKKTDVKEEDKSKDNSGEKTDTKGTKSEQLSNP
Protocol: as §1

[9] = biological target: T9, HDAC6 (Homo sapiens, UniProt Q9UBN7); assay: Determination of Koff kinetics against HDAC6 protein; settings: for residence time: 100 nM HDAC6 pre-incubated with 0.120 μM compound for 3 hr, diluted 200×, Ln(2)/Kobs, read-out: residence time for binding to HDAC6
T9 sequence (Q9UBN7 1-1215): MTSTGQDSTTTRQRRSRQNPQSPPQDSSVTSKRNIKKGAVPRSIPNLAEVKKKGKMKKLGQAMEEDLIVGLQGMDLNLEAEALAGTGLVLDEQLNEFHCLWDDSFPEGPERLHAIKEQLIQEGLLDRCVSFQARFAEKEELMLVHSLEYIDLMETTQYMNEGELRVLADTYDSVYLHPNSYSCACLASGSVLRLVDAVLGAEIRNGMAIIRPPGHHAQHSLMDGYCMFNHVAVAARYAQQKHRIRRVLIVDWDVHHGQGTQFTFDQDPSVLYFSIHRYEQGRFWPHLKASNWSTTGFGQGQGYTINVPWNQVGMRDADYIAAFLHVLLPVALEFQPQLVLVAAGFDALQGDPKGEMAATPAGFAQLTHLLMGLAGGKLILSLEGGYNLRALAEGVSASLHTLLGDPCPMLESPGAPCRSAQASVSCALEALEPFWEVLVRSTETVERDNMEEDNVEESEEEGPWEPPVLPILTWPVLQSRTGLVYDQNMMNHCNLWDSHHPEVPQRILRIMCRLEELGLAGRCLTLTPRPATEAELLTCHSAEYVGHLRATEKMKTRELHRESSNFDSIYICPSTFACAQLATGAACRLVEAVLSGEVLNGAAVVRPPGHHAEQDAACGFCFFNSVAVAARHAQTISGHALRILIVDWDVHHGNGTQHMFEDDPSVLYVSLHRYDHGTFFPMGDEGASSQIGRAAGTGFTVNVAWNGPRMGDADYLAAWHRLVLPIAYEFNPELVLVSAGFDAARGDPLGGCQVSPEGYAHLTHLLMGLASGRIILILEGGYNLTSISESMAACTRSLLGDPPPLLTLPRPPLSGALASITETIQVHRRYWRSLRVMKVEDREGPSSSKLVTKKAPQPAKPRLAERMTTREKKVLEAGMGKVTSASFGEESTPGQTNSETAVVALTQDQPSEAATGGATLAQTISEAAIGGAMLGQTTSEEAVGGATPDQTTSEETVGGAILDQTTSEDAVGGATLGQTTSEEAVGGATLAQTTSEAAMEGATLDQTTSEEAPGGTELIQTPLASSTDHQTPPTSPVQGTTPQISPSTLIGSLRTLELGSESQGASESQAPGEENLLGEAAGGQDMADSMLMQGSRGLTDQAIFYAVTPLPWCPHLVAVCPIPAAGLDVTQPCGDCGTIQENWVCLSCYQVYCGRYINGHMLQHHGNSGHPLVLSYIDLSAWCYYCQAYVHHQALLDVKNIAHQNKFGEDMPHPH
Protocol: The disassociation rate for #1a (FIG. 3) or #1b (FIG. 4) was determined by pre-incubating 100 nM HDAC6 protein with 0.120 μM compound #1a, #1b, or DMSO for 3 hr. After pre-incubation, the compound-enzyme complex was diluted (200×) into an assay buffer with substrate peptide. Progress curves for ˜8 hrs were observed using Labchip3000 instrument. Progress curve after pre-incubation with compound (blue) was fit with following equation: ((A+(Vs*x))+(((Vo−Vs)*(1−exp(((−1)*Kobs)*t)))/Kobs)), to determine observed rate of dissociation. Residence time was determined as Ln(2)/Kobs.

[10] = biological target: T9, HDAC6; assay: Inhibition of HDAC enzymes, 12-point concentration-response; set-up: made in house; settings: for IC50: HDAC6
Protocol: as §1

T1 sequence (P56524 whole entry, species assumed): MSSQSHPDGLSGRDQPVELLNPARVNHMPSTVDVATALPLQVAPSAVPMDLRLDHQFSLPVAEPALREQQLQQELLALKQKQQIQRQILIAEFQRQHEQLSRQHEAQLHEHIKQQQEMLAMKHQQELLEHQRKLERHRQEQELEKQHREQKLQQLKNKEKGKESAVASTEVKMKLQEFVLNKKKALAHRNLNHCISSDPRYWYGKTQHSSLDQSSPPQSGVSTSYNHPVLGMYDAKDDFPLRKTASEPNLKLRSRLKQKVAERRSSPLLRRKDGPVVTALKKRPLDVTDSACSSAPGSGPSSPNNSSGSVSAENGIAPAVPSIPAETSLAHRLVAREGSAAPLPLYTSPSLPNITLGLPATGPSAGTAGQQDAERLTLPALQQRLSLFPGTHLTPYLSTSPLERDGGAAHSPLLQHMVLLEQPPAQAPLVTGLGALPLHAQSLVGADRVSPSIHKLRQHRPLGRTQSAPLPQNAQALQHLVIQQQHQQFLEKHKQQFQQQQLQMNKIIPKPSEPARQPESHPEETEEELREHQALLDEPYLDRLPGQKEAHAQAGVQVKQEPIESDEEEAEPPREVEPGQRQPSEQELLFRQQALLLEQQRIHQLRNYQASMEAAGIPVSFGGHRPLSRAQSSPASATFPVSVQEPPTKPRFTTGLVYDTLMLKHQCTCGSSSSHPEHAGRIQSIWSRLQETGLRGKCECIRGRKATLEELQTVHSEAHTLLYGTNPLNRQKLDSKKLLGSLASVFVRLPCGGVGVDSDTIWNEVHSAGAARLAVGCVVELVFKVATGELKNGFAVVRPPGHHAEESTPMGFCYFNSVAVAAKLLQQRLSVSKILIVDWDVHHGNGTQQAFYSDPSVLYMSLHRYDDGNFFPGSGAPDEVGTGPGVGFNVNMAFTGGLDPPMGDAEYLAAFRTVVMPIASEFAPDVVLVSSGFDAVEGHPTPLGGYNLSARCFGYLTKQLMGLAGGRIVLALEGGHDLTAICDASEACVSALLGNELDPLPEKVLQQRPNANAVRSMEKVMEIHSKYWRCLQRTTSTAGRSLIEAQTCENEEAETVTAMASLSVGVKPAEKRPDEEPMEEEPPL

For CC[C@H](C(=O)Nc1ncc(C(=O)NO)s1)c1ccc(OC)cc1 [#1a, (S)—N-hydroxy-2-(2-(4-methoxyphenyl)butanamido)thiazole-5-carboxamide], the “Fold (1b/1a)” value ([1]; ratio of IC50, HDAC4) was 1.2, the “Fold (1b/1a)” value ([2]; ratio of IC50, HDAC8) was 3.1 and the IC50 [3] was 2 nM. The “Fold (1b/1a)” value ([3]; ratio of IC50, HDAC10) was 7.3, the “Fold (1b/1a)” value ([4]; ratio of IC50, HDAC7) was 3.4 and the “Fold (1b/1a)” value ([5]; ratio of IC50, HDAC11) was 0.73. The “Fold (1b/1a)” value ([6]; ratio of IC50, HDAC5) was 1.4, the “Fold (1b/1a)” value ([7]; ratio of IC50, HDAC1) was 7.8 and the “Fold (1b/1a)” value ([8]; ratio of IC50, HDAC2) was 6.9. For the same molecule, the residence time [9] was 1920 min, the “binding to HDAC6 (in words)” value ([9]; HDAC6) was “very tightly bound inhibitor of HDAC6” and the “increase in residence time compared to #1b” value ([9]; HDAC6) was 55 fold. The IC50 [10] was 0.71 nM and the “Fold (1b/1a)” value ([10]; ratio of IC50, HDAC6) was 1.5.
With CC[C@@H](C(=O)Nc1ncc(C(=O)NO)s1)c1ccc(OC)cc1 [#1b, (R)—N-hydroxy-2-(2-(4-methoxyphenyl)butanamido)thiazole-5-carboxamide] the IC50 ([1]; HDAC4) was 160 nM, the IC50 ([2]; HDAC8) was 416 nM and the IC50 [3] was 14.6 nM. For the same molecule, the IC50 ([4]; HDAC7) was 118 nM, the IC50 ([5]; HDAC11) was 4220 nM and the IC50 ([6]; HDAC5) was 100 nM. It also gave an IC50 ([7]; HDAC1) of 7.8 nM, an IC50 ([8]; HDAC2) of 36.5 nM and a residence time [9] of 35 min. For the same molecule, the IC50 [10] was 1.1 nM.
